From patent publication US20140328940A1, “MODULATION OF AXON DEGENERATION” (Genentech, Inc., priority 2009, published 2014)

Experiments:
[1] = toxin-induced degeneration of sympathetic neurons (MTT assay); format: cell-based; conditions: Sprague-Dawley, rat, primary sympathetic neurons from cervical ganglia, 24 hour vincristine, read-out: % viability (normalized)
Procedure: Sympathetic cervical ganglia were dissected from postnatal day 1 Sprague-Dawley rats (Charles River Labs) and collected in a dish containing Ultraculture media (Lonza) with 5% fetal bovine serum (Invitrogen). Ganglia were washed twice with serum-free Ultraculture media, and a final concentration of 0.1% trypsin (Worthington) was added and incubated with the tissue at 37° C. for 30 minutes. One percent DNase (Roche) solution in PBS was added to the ganglia and incubated at room temperature for 1-2 minutes. Ganglia were washed with Ultraculture and allowed to settle to the bottom of the tube. All wash media were removed and 1 mL plating media containing Ultraculture, 5% rat serum, 1% penicillin-streptomycin, 1% glutamax, 7 μM cytosine arabinoside (Sigma), and 50 ng/mL nerve growth factor (2.5S, Cedarlane Laboratory) was added to the tube. Ganglia were dissociated by trituration using a pipet (Rainin). The cell slurry was filtered over a […] cell strainer (Falcon) and cell number was counted. Sympathetic neurons were plated at a density of 5000-7500 cells/well (96-well dish), 200,000 cells/well (6-well plate), or 100,000 cells/well (8-well chamber slide) and grown for 4-5 days in 5% CO2 at 37° C. Every other day neurons were fed with fresh plating media containing 5-10 ng/mL NGF.
NGF withdrawal assays were performed as described in Example 14A. […]

[2] = vincristine challenge of cortical neurons, viability assay; format: cell-based; conditions: rat, primary E18 cortical neurons; 12 hour vincristine (300 nM); read-out: % Viability (normalized)
Procedure: (§1) Cortical neurons were isolated using the following procedure. Rat E18 cortices devoid of meninges were dissected into ice-cold neurobasal media (Invitrogen). Cortices were dissociated in a final concentration of 0.1% trypsin/PBS (Worthington) for 30 minutes at 37° C. A final concentration of 0.1% RNase (Roche) was added to the tube and tissue was incubated at room temperature for 1 minute. Tissue was washed once with warm neurobasal media and the tissue was allowed to settle in the tube before 1 mL of neurobasal media containing 2% B27 supplement (Invitrogen) was added. Tissue was dissociated by trituration with a P1000 pipet (Rainin). The cells were counted and, for some experiments, transfected with siRNAs using a Biosystem 96-well nucleofector (Amaxa).
(§2) Cells were plated in 6- or 8-well chambers or 96-well poly-D-lysine coated dishes (BD Biosciences) at plated cell densities of 2×10^6 cells/well, 1.25-2×10^5 cells/well, or 1×10^4 cells/well, respectively, for siRNA experiments (densities that allow for some cell death normally associated with the electroporation process). […] Gene silencing was assayed 3-4 days after plating by quantitative reverse transcriptase polymerase chain reaction (qRT-PCR). […] Each reaction containing 10 ng of RNA was run in triplicate using the Quantifect SYBR Green RT-PCR kit (Qiagen) with DLK-, JNK1-, JNK2-, or JNK3-specific primers. […]

[3] = system: cortical neurons; experiment: vincristine challenge of cortical neurons, LDH assay; format: cell-based, rat; conditions: 20 hour vincristine (300 nM)
Procedure: as §1, §2

With `CC[C@]1(O)C[C@H]2CN(CCc3c([nH]c4ccccc34)[C@@](C(=O)OC)(c3cc4c(cc3OC)N(C=O)[C@H]3[C@@](O)(C(=O)OC)[C@H](OC(C)=O)[C@]5(CC)C=CCN6CC[C@]43[C@@H]65)C2)C1` [vincristine] the viability at 24 h [1] was 28%, the viability at 12 h, 0.3 µM [2] was 77% and the “% cell death (normalized)” value [3] was 100%.
